The source of these data is patent EP1429719B1, “ANTI-INFLAMMATORY DERMOCOSMETOLOGIC COMPOSITION IN PARTICULAR FOR TREATING ACNE AND SEBORRHEIC DERMATITIS” (Pierre Fabre Dermo-Cosmetique, priority 2001, dated 2003).

The test relates to prostaglandine 6KF1α. The test is described as follows: Production of prostaglandin 6KF1α by HaCaT human keratinocytes stimulated with calcium ionophore A23187 (ELISA). The class given is cell-based, humain. Particulars: 5 h culture; for PG6KF1α: n = 3. The source says: Conformément à la présente invention, il a été mis en évidence une synergie d'activité anti-inflammatoire du lactamide et du glycyrrhétinate de zinc et/ou du glycyrrhétinate de stéaryl et/ou de glycyrrhétinate d'ammonium. Cette synergie a été objectivée à la suite d'une évaluation sur la production de prostaglandine 6KF1α par le kératynocyte humain.
Dans cette étude, on s'est intéressé en particulier à une prostaglandine, la PG6KF1α, métabolite stable de la prostarycline, qui est un des métabolites majeurs produits par le kératinocyte stimulé, et représentatif de la modulation de la production des métabolites de l'acide arachidonique issus de la voie de la cyclo-oxygénase.
Sur ce modèle, on a évalué l'activité du glycyrrhétinate de zinc en association avec le lactamide sur la production de PG6KF1α induite chez le kératinocyte par un stimulant de la cascade de l'acide arachidonique, le ionophore calcique A23187.
On a réalisé ensuite la même étude en évaluant l'activité du stéaryl glycyrrhétinate en association avec le lactamide.
La suspension de kératinocytes humains HaCaT dans le RPMI 10% SVF est distribuée dans les plaques 6 puits (1x106 cellules/2ml/puits) et incubée pendant 16 heures à 37°C dans une atmosphère à 5% CO2. Les kératinocytes sont alors rincés avec du PBS pour éliminer les cellules non-adhérentes puis exposés aux produits à tester inclus dans du RPMI sans SVF (qui pourrait interférer dans le dosage).
Le lactamide MEA est directement solubilisé dans le RPMI sans SVF à une concentration de 1 0mg/ml.
Le glycyrrhétinate de zinc est préparé dans l'éthanol absolu à 100 mg/ml puis repris dans le RPMI sans SVF à 10 mg/ml.
Le stéaryl glycyrrhétinate est préparé dans le DMSO à […] puis repris dans le RPMI sans SVF à 10mg/ml.
Le glycyrrhétinate d'ammonium est préparé dans l'éthanol absolu à 100 mg/ml puis repris dans le RPMI sans SVF à 25 mg/ml.
Pour chaque lot, 3 puits sont réalisés. Les cellules sont incubées pendant 1 heure avec les produits à tester puis le ionophore calcique A23187, est ajouté pendant 5 heures à la concentration 5µM.
Les milieux de culture de chacun des puits sont ensuite récupérés, centrifugés à 3000 tr/mn et conservés à -80°C.
La production de prostaglandine 6KF1α pour chacun des essais est mesurée par Kit Elisa EUROMEDEX.
Les lots suivants ont été réalisés : • Lot témoin • Lot témoin stimulé A23187 5µM • Lactamide MEA 500µg/ml + A23187 5µM • Glycyrrhétinate de zinc 10 µg/ml + A23187 5µM • Lactamide MEA 500µg/ml/Glycyrrhétinate de zinc 10µg/ml + A23187 5µM • Stéaryl glycyrrhétinate 50µg/ml + A23187 5µM • Lactamide MEA 500µg/ml/Stéaryl glycyrrhétinate 50µg/ml + A23187 5µM • Glycyrrhétinate d'ammonium 25 µg/ml + A23187 5µM • Lactamide MEA 500 µg/ml/Glycyrrhétinate d'ammonium 25 µg/ml + A23187 5µM.
Les résultats sont exprimés en picogrammes de prostaglandine 6KF1α pour 1x10^6 kératinocytes et par ml de culture.
L'analyse statistique des résultats est réalisée par une analyse de variance et par le test de Dunnett.

In the case of `CC1(C)[C@@H](O)CC[C@]2(C)[C@H]3C(=O)C=C4[C@@H]5C[C@@](C)(C(=O)O)CC[C@]5(C)CC[C@@]4(C)[C@]3(C)CC[C@@H]12` [Glycyrrhétinate d'ammonium, glycyrrhétinate d'ammonium], the PG6KF1α (Glycyrrhétinate d'ammonium 25µg/ml + A23187 5µM) was 80,74 ± 3,67 pg/1x10^6 kératinocytes/ml. The inhibition at 25 µg/mL (Homo sapiens, Glycyrrhétinate d'ammonium 25µg/ml + A23187 5µM, n = 3, read-out: % activité / Témoin A23187) stood at 30%. For the compound `CC(O)C(=O)NCCO` (stereo not shown) [Lactamide MEA, monoéthanolamide de l'acide lactique], the inhibition at 500 µg/mL (Homo sapiens, Lactamide MEA 500µg/ml + A23187 5µM, n = 3, read-out: % activité / Témoin A23187) was -8%. Further, for the setting “Lactamide MEA 500µg/ml + A23187 5µM, 1 h pre-incubation”, the PG6KF1α was 124,87 ± 11,50 pg/1x10^6 kératinocytes/ml. Take `CCCCCCCCCCCCCCCCCCOC(=O)[C@@]1(C)CC[C@]2(C)CC[C@]3(C)C(=CC(=O)[C@@H]4[C@@]5(C)CC[C@H](O)C(C)(C)[C@@H]5CC[C@]43C)[C@@H]2C1` [Stéaryl glycyrrhétinate, stéaryl glycyrrhétinate]: the inhibition at 50 µg/mL (Homo sapiens, Stéaryl glycyrrhétinate 50µg/ml + A23187 5µM, n = 3, read-out: % activité / Témoin A23187) was determined as 31%. Where the note is “Stéaryl glycyrrhétinate 50µg/ml + A23187 5µM”, the PG6KF1α is reported as 79,87 ± 5,14 pg/1x10^6 kératinocytes/ml. As for glycyrrhétinate de zinc, the PG6KF1α (Glycyrrhétinate de zinc 10µg/ml + A23187 5µM) is given as 78,37 ± 2,55 pg/1x10^6 kératinocytes/ml.
